molecular target: T1, Ba/F3 cell EGFR Exon20 ins NPH (Homo sapiens, UniProt P00533, INS773NPH); assay: Ba/F3 cell proliferation suppression, EGFR Exon20 ins NPH; assay type: cell-based; conditions: GI50 class; Ba/F3 cell line with NPH inserted at Exon20 of EGFR; 72 hours
T1 construct: expressed in transfected cells; host or cells: Ba/F3
Procedure, shortened: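 Seed 3000–5000 cells/well; after 24 h add compound (12 conc., 0.3 nM–50 um final); incubate 72 h; add CellTiter-Glo, 10 min room temperature; read luminescence; GI50 from % growth vs control, triplicate.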

| Ba/F3 (NPH) Activity | SMILES |
| --- | --- |
| A (GI50 < 50 nM) | C=CC(=O)Nc1cc(Nc2cc(N3OCC[C@@H]3Cc3ccccc3)ncn2)c(OC)cc1N1C[C@@H]2C[C@H]1CO2 [compound 962, N-(5-((6-((S)-3-benzylisoxazolidine-2-yl)pyrimidine-4-yl)amino)-2-((1S,4S)-2-oxa-5-azabicyclo [2.2.1]heptane-5-yl)-4-methoxyphenyl) acrylamide] |
| A (GI50 < 50 nM) | C=CC(=O)Nc1cc(Nc2cc(N3OCC[C@@H]3c3cc(F)ccc3F)ncn2)c(OC)cc1N1CCN(C2COC2)CC1 [compound 881, N-(5-((6-((R)-3-(2,5-difluorophenyl)isoxazolidine-2-yl)pyrimidine-4-yl)amino)-4-methoxy-2-(4-(oxetane-3-yl)piperazine-1-yl)phenyl) acrylamide] |
| B (50 nM ≤ GI50 < 500 nM) | C=CC(=O)Nc1cc(Nc2cc(N3OCC[C@@H]3c3cccc(Cl)c3F)ncn2)c(OC)cc1N1CCC(N2CCC(N(C)C)CC2)CC1 [compound 915, N-(5-((6-((R)-3-(3-chloro-2-fluorophenyl)isoxazolidine-2-yl)pyrimidine-4-yl)amino)-2-(4-(dimethylamino)-[1,4'-bipiperidine]-1'-yl)-4-methoxyphenyl) acrylamide] |
| A (GI50 < 50 nM) | C=CC(=O)Nc1cc(Nc2cc(N3OCC[C@@H]3c3cccc(F)c3)ncn2)c(OC)cc1N1CCC(N2C[C@@H]3C[C@H]2CN3CC)CC1 [compound 835, N-(2-(4-((1S,4S)-5-ethyl-2,5-diazabicyclo[2.2.1]heptane-2-yl)piperidine-1-yl)-5-((6-((R)-3-(3-fluorophenyl)isoxazolidine-2-yl)pyrimidine-4-yl)amino)-4-methoxyphenyl) acrylamide] |
| A (GI50 < 50 nM) | C=CC(=O)Nc1cc(Nc2cc(N3OCC[C@@H]3c3ccc(Cl)c(F)c3)ncn2)c(OC)cc1N1CCC(N2C[C@@H]3C[C@H]2CN3C)CC1 [compound 857, N-(5-((6-((R)-3-(4-chloro-3-fluorophenyl)isoxazolidine-2-yl)pyrimidine-4-yl)amino)-4-methoxy-2-(4-((1S,4S)-5-methyl-2,5-diazabicyclo[2.2.1]heptane-2-yl)piperidine-1-yl)phenyl)acrylamide] |
| A (GI50 < 50 nM) | C=CC(=O)Nc1cc(Nc2cc(N3OCC[C@@H]3c3cccc(C)c3F)ncn2)c(OC)cc1N1CCC(N2CC[C@H](N(C)C)C2)CC1 [compound 910, N-(2-(4-((S)-3-(dimethylamino)pyrolidine-1-yl)piperidine-1-yl)-5-((6-((R)-3-(2-fluoro-3-methylphenyl)isoxazolidine-2-yl)pyrimidine-4-yl)amino)-4-methoxyphenyl) acrylamide] |

Second part, the compound before the results:

| SMILES | Ba/F3 (NPH) Activity |
| --- | --- |
| C=CC(=O)Nc1cc(Nc2cc(N3OCC[C@@H]3c3cccc(Cl)c3F)ncn2)c(OC)cc1N1CCC(N2CCO[C@H](C)C2)CC1 [compound 357, N-(5-((6-((R)-3-(3-chloro-2-fluorophenyl)isoxazolidine-2-yl)pyrimidine-4-yl)amino)-4-methoxy-2-(4-((R)-2-methylmorpholino)piperidine-1-yl)phenyl) acrylamide] | A (GI50 < 50 nM) |
| C=CC(=O)Nc1cc(Nc2cc(N3OCC[C@@H]3c3ccc(C)nc3)ncn2)c(OC)cc1N1CCC(N2C[C@@H]3C[C@H]2CO3)CC1 [Example 228, N-(2-(4-((1S,4S)-2-oxa-5-azabicyclo[2.2.1]heptane-5-yl)piperidine-1-yl)-4-methoxy-5-((6-((R)-3-(6-methylpyridine-3-yl)isoxazolidine-2-yl)pyrimidine-4-yl)amino)phenyl)acrylamide] | A (GI50 < 50 nM) |
| C=CC(=O)Nc1cc(Nc2cc(N3OCC[C@@H]3c3ccc(F)c(Cl)c3)ncn2)c(OC)cc1N1CCC(N2CCN(C(C)=O)CC2)CC1 [compound 763, N-(2-(4-(4-acetylpiperazine-1-yl)piperidine-1-yl)-5-((6-((R)-3-(3-chloro-4-fluorophenyl)isoxazolidine-2-yl)pyrimidine-4-yl)amino)-4-methoxyphenyl) acrylamide] | A (GI50 < 50 nM) |
| C=CC(=O)Nc1cc(Nc2cc(N3OCC[C@@H]3c3ccc(F)c(Cl)c3F)ncn2)c(OC)cc1N1CCC(N2C[C@H]3C[C@@H]2CO3)CC1 [compound 635, N-(2-(4-((1R,4R)-2-oxa-5-azabicyclo[2.2.1]heptane-5-yl)piperidine-1-yl)-5-((6-((R)-3-(3-chloro-2,4-difluorophenyl)isoxazolidine-2-yl)pyrimidine-4-yl)amino)-4-methoxyphenyl) acrylamide] | A (GI50 < 50 nM) |
| C=CC(=O)Nc1cc(Nc2cc(N3OCC[C@@H]3c3ccc(F)cc3F)ncn2)c(OC)cc1N1CCC(N2CCN(C(C)C)CC2)CC1 [compound 428, N-(5-((6-((R)-3-(2,4-difluorophenyl)isoxazolidine-2-yl)pyrimidine-4-yl)amino)-2-(4-(4-isopropylpiperazine-1-yl)piperidine-1-yl)-4-methoxyphenyl) acrylamide] | A (GI50 < 50 nM) |
| C=CC(=O)Nc1cc(Nc2cc(N3OCC[C@@H]3c3ccc(Cl)c(Cl)c3F)ncn2)c(OC)cc1N1CC[C@@H](N(C)C)C1 [Example 291, N-(5-((6-((R)-3-(3,4-dichloro-2-fluorophenyl)isoxazolidine-2-yl)pyrimidine-4-yl)amino)-2-((R)-3-(dimethylamino)pyrolidine-1-yl)-4-methoxyphenyl) acrylamide] | B (50 nM ≤ GI50 < 500 nM) |
| C=CC(=O)Nc1cc(Nc2cc(N3OCC[C@@H]3c3cccc4ccccc34)ncn2)c(OC)cc1N1CCC(N2CCN(C3CCC3)CC2)CC1 [Example 184, N-(2-(4-(4-cyclobutylpiperazine-1-yl)piperidine-1-yl)-4-methoxy-5-((6-((R)-3-(naphthalene-1-yl)isoxazolidine-2-yl)pyrimidine-4-yl)amino)phenyl)acrylamide] | B (50 nM ≤ GI50 < 500 nM) |
| C=CC(=O)Nc1cc(Nc2cc(N3OCC[C@@H]3c3cccc(F)c3F)ncn2)c(OC)cc1N1CCC(N2CCN(C3COC3)CC2)CC1 [Example 195, N-(5-((6-((R)-3-(2,3-difluorophenyl)isoxazolidine-2-yl)pyrimidine-4-yl)amino)-4-methoxy-2-(4-(4-(oxetane-3-yl)piperazine-1-yl)piperidine-1-yl)phenyl) acrylamide] | A (GI50 < 50 nM) |
| C=CC(=O)Nc1cc(Nc2cc(N3OCC[C@@H]3c3cccc(C(F)(F)F)c3)ncn2)c(OC)cc1N1CCC(N2CCN(C3CC3)CC2)CC1 [Example 148, N-(2-(4-(4-cyclopropylpiperazine-1-yl)piperidine-1-yl)-4-methoxy-5-((6-((R)-3-(3-(trifluoromethyl)phenyl)isoxazolidine-2-yl)pyrimidine-4-yl)amino)phenyl)acrylamide] | A (GI50 < 50 nM) |
| C#Cc1cccc([C@H]2CCON2c2cc(Nc3cc(NC(=O)C=C)c(N4CCC(N(C)C)CC4)cc3OC)ncn2)c1 [compound 647, N-(2-(4-(dimethylamino)piperidine-1-yl)-5-((6-((R)-3-(3-ethynylphenyl)isoxazolidine-2-yl)pyrimidine-4-yl)amino)-4-methoxyphenyl) acrylamide] | A (GI50 < 50 nM) |
| C=CC(=O)Nc1cc(Nc2cc(N3OCC[C@@H]3c3cccc(C)c3F)ncn2)c(OC)cc1N1CCC(N2CCN(C(C)=O)CC2)CC1 [compound 421, N-(2-(4-(4-acetylpiperazine-1-yl)piperidine-1-yl)-5-((6-((R)-3-(2-fluoro-3-methylphenyl)isoxazolidine-2-yl)pyrimidine-4-yl)amino)-4-methoxyphenyl) acrylamide] | A (GI50 < 50 nM) |
| C=CC(=O)Nc1cc(Nc2cc(N3OCC[C@@H]3c3c(F)ccc(F)c3F)ncn2)c(OC)cc1N1CCC(N2C[C@@H](C)O[C@@H](C)C2)CC1 [compound 644, N-(2-(4-((2S,6R)-2,6-dimethylmorpholino)piperidine-1-yl)-4-methoxy-5-((6-((R)-3-(2,3,6-trifluorophenyl)isoxazolidine-2-yl)pyrimidine-4-yl)amino)phenyl)acrylamide] | A (GI50 < 50 nM) |
| C=CC(=O)Nc1cc(Nc2cc(N3OCC[C@@H]3c3cc(F)cc(F)c3)ncn2)c(OC)cc1N1CCC(N2C[C@H]3C[C@@H]2CN3CC)CC1 [Example 267, N-(5-((6-((R)-3-(3,5-difluorophenyl)isoxazolidine-2-yl)pyrimidine-4-yl)amino)-2-(4-((1R,4R)-5-ethyl-2,5-diazabicyclo[2.2.1]heptane-2-yl)piperidine-yl)-4-1-methoxyphenyl) acrylamide] | A (GI50 < 50 nM) |
| C=CC(=O)Nc1cc(Nc2cc(N3OCC[C@@H]3c3ccc(F)cc3)ncn2)c(OC)cc1N1CCN(C)CC1 [compound 785, N-(5-((6-((R)-3-(4-fluorophenyl)isoxazolidine-2-yl)pyrimidine-4-yl)amino)-4-methoxy-2-(4-methylpiperazine-1-yl)phenyl)acrylamide] | A (GI50 < 50 nM) |
| C=CC(=O)Nc1cc(Nc2cc(N3OCC[C@@H]3c3cc(F)cc(Cl)c3)ncn2)c(OC)cc1N1CCC(N2CCN(C3CC3)C[C@H]2C)CC1 [Example 159, N-(5-((6-((R)-3-(3-chloro-5-fluorophenyl)isoxazolidine-2-yl)pyrimidine-4-yl)amino)-2-(4-((R)-4-cyclopropyl-2-methylpiperazine-1-yl)piperidine-1-yl)-4-methoxyphenyl) acrylamide] | A (GI50 < 50 nM) |

From patent US12157730B2, “Heteroaryl derivative, method for producing same, and pharmaceutical composition comprising same as effective component” (VORONOI INC., priority 2019, dated 2024)
